Assay results: patent US20220356147A1, “COMPOUNDS AND METHODS FOR POTENTIATING COLISTIN ACTIVITY” (University of Notre Dame du Lac, priority 2019, published 2022)

The compounds below were run on A. baumannii 4106 (AB4106) (assay: Broth microdilution, colistin potentiation). Conditions: compound at 1 μM.
Assay type: cell-based
Description: (§1) Broth microdilution method for measurement of colistin potentiation: Bacteria were cultured for 4 to 6 hours in CAMHB and diluted to 1.04×10^6 CFU/mL for AB 4106 and 1.96×10^6 CFU/mL for KP B9 in fresh CAMHB. To aliquots (4 mL) was added compound from stock solutions in DMSO. One aliquot was not dosed to allow measurement of the colistin MIC in the absence of compound. A 1 mL aliquot of each sample was dosed with colistin, and from this 200 μL was dispensed into the first row of a 96-well microtiter plate in which all but the final row of subsequent wells was prefilled with 100 μL of the corresponding compound dosed bacterial suspension The final row was filled with media to act as a sterility control and blank. Row one wells were mixed 6-7 times, then, 100 μL was withdrawn and transferred to row two. Row two wells were mixed 6-7 times followed by a 100 μL transfer from row two to row three. This procedure was used to serially dilute the rest of the rows of the microtiter plate, excluding the last prefilled row, which was used to measure growth in the presence of compound alone. Plates were then sealed with GLAD
(§2) Press'n Seal and incubated under stationary conditions at 37° C. […] MIC values were determined as the minimum concentration required to achieve 90% growth inhibition compared to growth in untreated wells.

Colistin MIC fold reduction, AB 4106 [fold]	SMILES
128	O=C(Nc1cc(C(F)(F)F)cc(C(F)(F)F)c1)c1cc(Br)ccc1O [Compound 9]
64	O=C(Nc1cc(F)cc(F)c1)c1ccc(C(F)(F)F)cc1O [Compound 54, N-(3,5-difluorophenyl)-2-hydroxy-4-(trifluoromethyl)benzamide]
256	O=C(Nc1cc(F)cc(F)c1)c1cc(Br)ccc1O [Compound 45]
32	O=C(Nc1cc(Cl)cc(Cl)c1)c1cc(Cl)cc(Cl)c1O [Compound 62]
64	O=C(Nc1cc(F)cc(F)c1)c1cc(I)ccc1O [Compound 50]
128	O=C(Nc1cc(Cl)cc(Cl)c1)c1cc(F)ccc1O [Compound 43]
256	O=C(Nc1cc(C(F)(F)F)ccc1C(F)(F)F)c1cc(Br)ccc1O [Compound 49]
256	O=C(Nc1cc(Br)cc(Br)c1)c1ccc(C(F)(F)F)cc1O [Compound 56]
256	O=C(Nc1cc(Cl)cc(Cl)c1)c1ccc(C(F)(F)F)cc1O [Compound 55, N-(3,5-dichlorophenyl)-2-hydroxy-4-(trifluoromethyl)benzamide]
256	O=C(Nc1cc(Br)cc(Br)c1)c1cc(Br)ccc1O [Compound 47]
≤ 16	Cc1ccc(O)c(C(=O)Nc2cc(C(F)(F)F)cc(C(F)(F)F)c2)c1 [Compound 12]
≤ 16	O=C(Nc1cccc(Cl)c1)c1cc(Cl)ccc1O [Compound 40]
128	O=C(Nc1cc(Br)cc(Br)c1)c1cc(Cl)cc(Cl)c1O [Compound 60, 3,5-dichloro-N-(3,5-dibromophenyl)-2-hydroxybenzamide]
16	Cc1cc(C)cc(NC(=O)c2cc(Cl)ccc2O)c1 [Compound 20]
32	O=C(Nc1cc(Cl)cc(Cl)c1)c1cc(Br)ccc1O [Compound 46]

SMILES	Colistin MIC fold reduction, AB 4106 [fold]
O=C(Nc1ccc(Br)cc1)c1cc(Cl)ccc1O [Compound 37]	128

Same assay, conditions: compound at 3 μM

Colistin MIC fold reduction, AB 4106 [fold]	SMILES
1024	O=C(Nc1cc(C(F)(F)F)cc(C(F)(F)F)c1)c1cc(Br)ccc1O [Compound 9]
512	O=C(Nc1cc(F)cc(F)c1)c1ccc(C(F)(F)F)cc1O [Compound 54, N-(3,5-difluorophenyl)-2-hydroxy-4-(trifluoromethyl)benzamide]
512	O=C(Nc1cc(F)cc(F)c1)c1cc(Br)ccc1O [Compound 45]
256	O=C(Nc1cc(Cl)cc(Cl)c1)c1cc(Cl)cc(Cl)c1O [Compound 62]
256	O=C(Nc1cc(F)cc(F)c1)c1cc(I)ccc1O [Compound 50]
512	O=C(Nc1cc(Cl)cc(Cl)c1)c1cc(F)ccc1O [Compound 43]
1024	O=C(Nc1cc(C(F)(F)F)ccc1C(F)(F)F)c1cc(Br)ccc1O [Compound 49]
1024	O=C(Nc1cc(Br)cc(Br)c1)c1ccc(C(F)(F)F)cc1O [Compound 56]
1024	O=C(Nc1cc(Cl)cc(Cl)c1)c1ccc(C(F)(F)F)cc1O [Compound 55, N-(3,5-dichlorophenyl)-2-hydroxy-4-(trifluoromethyl)benzamide]
1024	O=C(Nc1cc(Br)cc(Br)c1)c1cc(Br)ccc1O [Compound 47]
256	Cc1ccc(O)c(C(=O)Nc2cc(C(F)(F)F)cc(C(F)(F)F)c2)c1 [Compound 12]
256	O=C(Nc1cccc(Cl)c1)c1cc(Cl)ccc1O [Compound 40]
512	O=C(Nc1cc(Br)cc(Br)c1)c1cc(Cl)cc(Cl)c1O [Compound 60, 3,5-dichloro-N-(3,5-dibromophenyl)-2-hydroxybenzamide]
512	Cc1cc(C)cc(NC(=O)c2cc(Cl)ccc2O)c1 [Compound 20]
256	O=C(Nc1cc(Cl)cc(Cl)c1)c1cc(Br)ccc1O [Compound 46]

SMILES	Colistin MIC fold reduction, AB 4106 [fold]
O=C(Nc1ccc(Br)cc1)c1cc(Cl)ccc1O [Compound 37]	1024

Same assay, conditions: compound at 5 μM

SMILES	Colistin potentiation activity in words, AB4106
O=C(Nc1cc(C(F)(F)F)cc(C(F)(F)F)c1)c1cc(O)ccc1O [Compound 16, N-(3,5-bis(trifluoromethyl)phenyl)-2,5-dihydroxybenzamide]	essentially inactive

Same assay, conditions: compound at 5 μM; colistin alone 2048 μg/mL

Colistin MIC fold reduction, AB 4106 [fold]	SMILES
1024	O=C(Nc1cc(C(F)(F)F)cc(C(F)(F)F)c1)c1cc(Br)ccc1O [Compound 9]
1024	O=C(Nc1cc(F)cc(F)c1)c1ccc(C(F)(F)F)cc1O [Compound 54, N-(3,5-difluorophenyl)-2-hydroxy-4-(trifluoromethyl)benzamide]
1024	O=C(Nc1cc(F)cc(F)c1)c1cc(Br)ccc1O [Compound 45]
512	O=C(Nc1cc(Cl)cc(Cl)c1)c1cc(Cl)cc(Cl)c1O [Compound 62]
512	O=C(Nc1cc(F)cc(F)c1)c1cc(I)ccc1O [Compound 50]
1024	O=C(Nc1cc(Cl)cc(Cl)c1)c1cc(F)ccc1O [Compound 43]
2048	O=C(Nc1cc(C(F)(F)F)ccc1C(F)(F)F)c1cc(Br)ccc1O [Compound 49]
2048	O=C(Nc1cc(Br)cc(Br)c1)c1ccc(C(F)(F)F)cc1O [Compound 56]
2048	O=C(Nc1cc(Cl)cc(Cl)c1)c1ccc(C(F)(F)F)cc1O [Compound 55, N-(3,5-dichlorophenyl)-2-hydroxy-4-(trifluoromethyl)benzamide]
1024	O=C(Nc1cc(Br)cc(Br)c1)c1cc(Br)ccc1O [Compound 47]
≤ 16	O=C(Nc1cc(C(F)(F)F)cc(C(F)(F)F)c1)c1cc(O)ccc1O [Compound 16, N-(3,5-bis(trifluoromethyl)phenyl)-2,5-dihydroxybenzamide]
512	Cc1ccc(O)c(C(=O)Nc2cc(C(F)(F)F)cc(C(F)(F)F)c2)c1 [Compound 12]
1024	O=C(Nc1cccc(Cl)c1)c1cc(Cl)ccc1O [Compound 40]
2048	O=C(Nc1cc(Br)cc(Br)c1)c1cc(Cl)cc(Cl)c1O [Compound 60, 3,5-dichloro-N-(3,5-dibromophenyl)-2-hydroxybenzamide]
1024	Cc1cc(C)cc(NC(=O)c2cc(Cl)ccc2O)c1 [Compound 20]
512	O=C(Nc1cc(Cl)cc(Cl)c1)c1cc(Br)ccc1O [Compound 46]

SMILES	Colistin MIC fold reduction, AB 4106 [fold]
O=C(Nc1ccc(Br)cc1)c1cc(Cl)ccc1O [Compound 37]	2048

Each compound was assayed on AB 4106 (assay: Broth microdilution, standalone MIC of compound). Conditions: Acinetobacter baumannii, 16 h, read-out: MIC of compound alone, AB 4106.
Assay type: cell-based, A. baumannii
Description: Broth microdilution method for the determination of minimum inhibitory concentrations: Bacteria were cultured for 4 to 6 hours in CAMHB and subcultured to 1.04×10^6 CFU/mL for AB 4106 and 1.96×10^6 CFU/mL for KP B9 in fresh CAMHB. To aliquots (1 mL) was added compound from stock solutions in DMSO, such that the compound concentration equaled the highest concentration tested. Samples were then dispensed (200 μL) into the first row of a 96-well microtiter plate in which all but the final row of subsequent wells were prefilled with 100 μL of the untreated bacterial subculture. The final row was filled with media to act as a sterility control and blank. Row one wells were mixed 6-7 times, then, 100 μL was withdrawn and transferred to row two. Row two wells were mixed 6-7 times followed by a 100 μL transfer from row two to row three. This procedure was used to serially dilute the rest of the rows of the microtiter plate, excluding the last prefilled row, which was used to measure growth in the absence of compound. Plates were then sealed with GLAD Press'n Seal and incubated under stationary conditions at 37 C. […] MIC values were determined as the minimum concentration required to achieve 90% growth inhibition compared to growth in untreated wells.

SMILES	MIC [µM]
O=C(Nc1ccc(Br)cc1)c1cc(Cl)ccc1O [Compound 37]	> 200

Same assay, conditions: Acinetobacter baumannii, 16 h; standalone, no colistin; read-out: MIC of compound alone, AB 4106

MIC [µM]	SMILES
> 100	O=C(Nc1cc(C(F)(F)F)cc(C(F)(F)F)c1)c1cc(Br)ccc1O [Compound 9]
200	O=C(Nc1cc(F)cc(F)c1)c1ccc(C(F)(F)F)cc1O [Compound 54, N-(3,5-difluorophenyl)-2-hydroxy-4-(trifluoromethyl)benzamide]
> 200	O=C(Nc1cc(F)cc(F)c1)c1cc(Br)ccc1O [Compound 45]
100	O=C(Nc1cc(Cl)cc(Cl)c1)c1cc(Cl)cc(Cl)c1O [Compound 62]
> 200	O=C(Nc1cc(F)cc(F)c1)c1cc(I)ccc1O [Compound 50]
> 200	O=C(Nc1cc(Cl)cc(Cl)c1)c1cc(F)ccc1O [Compound 43]
200	O=C(Nc1cc(C(F)(F)F)ccc1C(F)(F)F)c1cc(Br)ccc1O [Compound 49]
> 200	O=C(Nc1cc(Br)cc(Br)c1)c1ccc(C(F)(F)F)cc1O [Compound 56]
> 200	O=C(Nc1cc(Cl)cc(Cl)c1)c1ccc(C(F)(F)F)cc1O [Compound 55, N-(3,5-dichlorophenyl)-2-hydroxy-4-(trifluoromethyl)benzamide]
> 200	O=C(Nc1cc(Br)cc(Br)c1)c1cc(Br)ccc1O [Compound 47]
> 200	O=C(Nc1cc(C(F)(F)F)cc(C(F)(F)F)c1)c1cc(O)ccc1O [Compound 16, N-(3,5-bis(trifluoromethyl)phenyl)-2,5-dihydroxybenzamide]
> 200	Cc1ccc(O)c(C(=O)Nc2cc(C(F)(F)F)cc(C(F)(F)F)c2)c1 [Compound 12]
> 200	O=C(Nc1cccc(Cl)c1)c1cc(Cl)ccc1O [Compound 40]
50	O=C(Nc1cc(Br)cc(Br)c1)c1cc(Cl)cc(Cl)c1O [Compound 60, 3,5-dichloro-N-(3,5-dibromophenyl)-2-hydroxybenzamide]
> 200	Cc1cc(C)cc(NC(=O)c2cc(Cl)ccc2O)c1 [Compound 20]
> 200	O=C(Nc1cc(Cl)cc(Cl)c1)c1cc(Br)ccc1O [Compound 46]

Each compound was assayed on AB4106 and KPB9 (assay: Initial screen for colistin resistance suppression, statements in words for both strains). Conditions: compound at 5 μM.
Assay type: cell-based, A. baumannii and K. pneumoniae
Description: as §1, §2

SMILES	Colistin potentiation activity in words, compared to IMD-0354
O=C(Nc1cc(C(F)(F)F)cc(C(F)(F)F)c1)c1cc(Br)ccc1O [Compound 9]	essentially equipotent activity to IMD-0354
